# According to US11878975B2, “Substituted indole compounds useful as TLR inhibitors” (BRISTOL-MYERS SQUIBB COMPANY, priority 2017, dated 2024):
# How the values were obtained:
# Type in all cases: cell-based
# [1] = target: T1, human TLR9 (Homo sapiens, UniProt Q9NR96); assay: TLR9 inhibition reporter assay (HEK-Blue cells, SEAP reporter, ODN2006 stimulation); details: HEK-Blue cells overexpressing human TLR9, SEAP reporter, ODN2006 5 nM
# T1 construct: host or cells: HEK-Blue cells
# T1 sequence (Q9NR96 26-1032): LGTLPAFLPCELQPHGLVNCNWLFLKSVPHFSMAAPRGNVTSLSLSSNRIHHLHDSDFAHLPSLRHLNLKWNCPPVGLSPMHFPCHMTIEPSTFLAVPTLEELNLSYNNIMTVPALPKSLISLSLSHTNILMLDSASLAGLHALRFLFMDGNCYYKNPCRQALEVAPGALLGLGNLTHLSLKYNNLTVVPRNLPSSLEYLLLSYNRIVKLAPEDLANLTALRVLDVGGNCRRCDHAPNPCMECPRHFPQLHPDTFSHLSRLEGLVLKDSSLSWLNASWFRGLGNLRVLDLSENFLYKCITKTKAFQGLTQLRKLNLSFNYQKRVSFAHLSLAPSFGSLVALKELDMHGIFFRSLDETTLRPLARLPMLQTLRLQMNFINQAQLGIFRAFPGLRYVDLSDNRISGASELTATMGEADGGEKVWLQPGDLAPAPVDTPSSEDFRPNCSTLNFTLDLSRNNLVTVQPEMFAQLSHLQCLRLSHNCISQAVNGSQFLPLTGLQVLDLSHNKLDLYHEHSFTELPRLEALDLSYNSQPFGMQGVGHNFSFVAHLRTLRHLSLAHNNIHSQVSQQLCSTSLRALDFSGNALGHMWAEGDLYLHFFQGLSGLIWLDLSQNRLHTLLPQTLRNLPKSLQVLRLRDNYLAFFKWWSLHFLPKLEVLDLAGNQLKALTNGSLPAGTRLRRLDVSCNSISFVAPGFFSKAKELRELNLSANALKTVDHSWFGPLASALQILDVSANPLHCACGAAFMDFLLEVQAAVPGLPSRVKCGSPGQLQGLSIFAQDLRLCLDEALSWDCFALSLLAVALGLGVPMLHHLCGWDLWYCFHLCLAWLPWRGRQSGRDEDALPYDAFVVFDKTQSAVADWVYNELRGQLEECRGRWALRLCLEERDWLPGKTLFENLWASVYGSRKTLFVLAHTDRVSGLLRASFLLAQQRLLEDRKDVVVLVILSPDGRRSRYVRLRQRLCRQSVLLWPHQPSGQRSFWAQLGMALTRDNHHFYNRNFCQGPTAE
# Summary of the method: (§1)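 HEK-Blue cells with NF-κB/AP-1-driven SEAP reporter, pre-treated 30 min at room temperature with compound (0.05 nM-50 μM). Stimulants: gardiquimod 7.5 μM (TLR7), R848 15.9 μM (TLR8) or ODN2006 5 nM (TLR9). SEAP measured after 22 h at 37° C.; percent inhibition versus agonist-plus-DMSO and known-inhibitor wells.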
# [2] = target: T2, human TLR7 (Homo sapiens, UniProt Q9NYK1); assay: TLR7 inhibition reporter assay (HEK-Blue cells, SEAP reporter, gardiquimod stimulation); details: HEK-Blue cells overexpressing human TLR7, SEAP reporter, gardiquimod 7.5 μM
# T2 construct: host or cells: HEK-Blue cells
# T2 sequence (Q9NYK1 27-1049): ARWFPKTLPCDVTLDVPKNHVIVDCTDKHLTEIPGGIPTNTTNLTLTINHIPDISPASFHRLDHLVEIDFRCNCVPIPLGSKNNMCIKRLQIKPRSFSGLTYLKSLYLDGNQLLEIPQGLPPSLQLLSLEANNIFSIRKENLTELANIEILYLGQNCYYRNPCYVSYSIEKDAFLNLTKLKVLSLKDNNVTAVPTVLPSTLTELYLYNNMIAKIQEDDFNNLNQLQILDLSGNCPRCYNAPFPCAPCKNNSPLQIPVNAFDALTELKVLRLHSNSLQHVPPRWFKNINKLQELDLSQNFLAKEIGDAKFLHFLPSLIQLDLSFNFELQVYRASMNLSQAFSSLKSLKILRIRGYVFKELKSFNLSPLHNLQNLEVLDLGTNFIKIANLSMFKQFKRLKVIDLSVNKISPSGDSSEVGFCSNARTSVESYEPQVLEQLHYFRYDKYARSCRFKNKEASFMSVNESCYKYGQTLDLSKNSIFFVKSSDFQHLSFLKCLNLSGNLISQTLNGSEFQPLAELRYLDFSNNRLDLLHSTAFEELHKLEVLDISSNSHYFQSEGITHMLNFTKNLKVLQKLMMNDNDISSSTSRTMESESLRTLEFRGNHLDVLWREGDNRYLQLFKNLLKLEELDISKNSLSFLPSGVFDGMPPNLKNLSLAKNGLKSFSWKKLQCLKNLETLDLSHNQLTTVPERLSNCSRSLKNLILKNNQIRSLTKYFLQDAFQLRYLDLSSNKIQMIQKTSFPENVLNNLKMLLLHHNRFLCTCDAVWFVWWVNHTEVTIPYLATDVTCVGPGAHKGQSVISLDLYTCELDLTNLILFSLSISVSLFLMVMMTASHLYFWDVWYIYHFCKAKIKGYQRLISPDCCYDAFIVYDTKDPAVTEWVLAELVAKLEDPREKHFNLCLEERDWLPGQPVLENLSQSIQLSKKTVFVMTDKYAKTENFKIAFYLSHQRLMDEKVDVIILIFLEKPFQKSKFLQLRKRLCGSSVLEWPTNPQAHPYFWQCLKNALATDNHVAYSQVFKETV
# Summary of the method: as §1
# [3] = target: T3, human TLR8 (Homo sapiens, UniProt Q9NR97); assay: TLR8 inhibition reporter assay (HEK-Blue cells, SEAP reporter, R848 stimulation); details: HEK-Blue cells overexpressing human TLR8, SEAP reporter, R848 15.9 μM
# T3 construct: host or cells: HEK-Blue cells
# T3 sequence (Q9NR97 27-1041): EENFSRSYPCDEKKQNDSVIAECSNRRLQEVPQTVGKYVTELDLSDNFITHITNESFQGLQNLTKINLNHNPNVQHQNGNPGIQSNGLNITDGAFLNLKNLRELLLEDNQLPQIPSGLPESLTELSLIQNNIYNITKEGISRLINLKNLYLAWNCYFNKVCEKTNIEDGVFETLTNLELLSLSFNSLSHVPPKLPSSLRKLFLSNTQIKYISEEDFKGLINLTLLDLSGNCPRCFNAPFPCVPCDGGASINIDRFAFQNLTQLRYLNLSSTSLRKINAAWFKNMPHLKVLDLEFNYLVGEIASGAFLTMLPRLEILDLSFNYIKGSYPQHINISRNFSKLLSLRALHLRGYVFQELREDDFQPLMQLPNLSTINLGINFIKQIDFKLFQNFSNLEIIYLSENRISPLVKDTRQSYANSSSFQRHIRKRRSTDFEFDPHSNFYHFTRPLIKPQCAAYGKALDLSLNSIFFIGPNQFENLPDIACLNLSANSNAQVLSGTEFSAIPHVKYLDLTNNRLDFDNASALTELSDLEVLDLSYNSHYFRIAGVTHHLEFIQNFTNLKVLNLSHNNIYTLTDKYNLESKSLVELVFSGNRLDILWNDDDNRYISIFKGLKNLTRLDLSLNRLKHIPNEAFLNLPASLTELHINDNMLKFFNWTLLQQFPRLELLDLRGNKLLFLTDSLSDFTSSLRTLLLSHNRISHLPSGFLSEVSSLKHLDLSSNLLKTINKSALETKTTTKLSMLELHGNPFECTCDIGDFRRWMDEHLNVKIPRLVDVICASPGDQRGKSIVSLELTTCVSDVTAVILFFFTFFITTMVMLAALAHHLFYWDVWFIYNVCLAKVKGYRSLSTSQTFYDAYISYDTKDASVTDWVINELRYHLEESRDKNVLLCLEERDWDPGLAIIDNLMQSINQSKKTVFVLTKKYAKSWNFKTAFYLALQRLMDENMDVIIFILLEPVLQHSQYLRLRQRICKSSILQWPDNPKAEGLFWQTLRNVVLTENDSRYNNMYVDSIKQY
# Summary of the method: as §1
IC50 [1],IC50 [2],IC50 [3],SMILES
1270 nM,0.86 nM,0.23 nM,"COc1cc(-c2[nH]c3ccc(C4CCC(N(C)C(C)C)C4)cc3c2C(C)C)cn2ncnc12 (single isomer, unassigned) [Example 275, N-isopropyl-3-(3-isopropyl-2-(8-methoxy-[1,2,4]triazolo[1,5-a]pyridin-6-yl)-1H-indol-5-yl)-N-methylcyclopentan-1-amine]"
468 nM,0.64 nM,0.9 nM,"COc1cc(-c2[nH]c3ccc(C4CCC(N(C)C(C)C)C4)cc3c2C(C)C)cn2ncnc12 (single isomer, unassigned) [Example 276, N-isopropyl-3-(3-isopropyl-2-(8-methoxy-[1,2,4]triazolo[1,5-a]pyridin-6-yl)-1H-indol-5-yl)-N-methylcyclopentan-1-amine]"
801 nM,2 nM,4.4 nM,"COc1cc(-c2[nH]c3ccc(C4CCC(N(C)C(C)C)C4)cc3c2C(C)C)cn2ncnc12 (single isomer, unassigned) [Example 277, N-isopropyl-3-(3-isopropyl-2-(8-methoxy-[1,2,4]triazolo[1,5-a]pyridin-6-yl)-1H-indol-5-yl)-N-methylcyclopentan-1-amine]"
1410 nM,2 nM,1.5 nM,"COc1cc(-c2[nH]c3ccc(C4CCC(N(C)C(C)C)C4)cc3c2C(C)C)cn2ncnc12 (single isomer, unassigned) [Example 278, N-isopropyl-3-(3-isopropyl-2-(8-methoxy-[1,2,4]triazolo[1,5-a]pyridin-6-yl)-1H-indol-5-yl)-N-methylcyclopentan-1-amine]"
> 50000 nM,8 nM,18 nM,"Cc1cc(-c2[nH]c3ccc(C4CN(CC(=O)N(C)C)CCO4)cc3c2C(C)C)cn2ncnc12 (single isomer, unassigned) [Example 308]"
> 50000 nM,9 nM,55 nM,"Cc1cc(-c2[nH]c3ccc(C4CN(CC(=O)N(C)C)CCO4)cc3c2C(C)C)cn2ncnc12 (single isomer, unassigned) [Example 316]"
6990 nM,6 nM,4.6 nM,"Cc1cc(-c2[nH]c3ccc(C4CN(CC(C)(C)O)CCO4)cc3c2C(C)C)cn2ncnc12 (single isomer, unassigned) [Example 356]"
26700 nM,8 nM,11 nM,"Cc1cc(-c2[nH]c3ccc(C4CN(C(=O)CN(C)C)C(C)(C)CO4)cc3c2C(C)C)cn2ncnc12 (single isomer, unassigned) [Example 372, 2-(dimethylamino)-1-(2-(3-isopropyl-2-(8-methyl-[1,2,4]triazolo[1,5-a]pyridin-6-yl)-1H-indol-5-yl)-5,5-dimethylmorpholino)ethanone]"
> 50000 nM,6 nM,36 nM,"Cc1cc(-c2[nH]c3ccc(C4CN(C(=O)CN(C)C)C(C)(C)CO4)cc3c2C(C)C)cn2ncnc12 (single isomer, unassigned) [Example 373, 2-(dimethylamino)-1-(2-(3-isopropyl-2-(8-methyl-[1,2,4]triazolo[1,5-a]pyridin-6-yl)-1H-indol-5-yl)-5,5-dimethylmorpholino)ethanone]"

# More lines, now with the values behind:
SMILES,IC50 [1],IC50 [2],IC50 [3]
"CNC(=O)CNC1CCC(c2ccc3[nH]c(-c4cc(C)nc(C)c4)c(C(C)C)c3c2)CC1 (single isomer, unassigned) [Example 180, 2-((4-(2-(2,6-dimethylpyridin-4-yl)-3-isopropyl-1H-indol-5-yl)cyclohexyl)amino)-N-methylacetamide]",277 nM,2 nM,4.5 nM
"COc1cc(-c2[nH]c3ccc(C4CCCNC4)cc3c2C(C)C)cn2ncnc12 (single isomer, unassigned) [Example 182]",2370 nM,1 nM,5.3 nM
"COc1cc(-c2[nH]c3ccc(C4CCCNC4)cc3c2C(C)C)cn2ncnc12 (single isomer, unassigned) [Example 183]",4630 nM,2 nM,7.9 nM
"COc1cc(-c2[nH]c3ccc(C4CCCN(C(C)C)C4)cc3c2C(C)C)cn2ncnc12 (single isomer, unassigned) [Example 239]",1370 nM,2 nM,3 nM
"COCCN1CCCC(c2ccc3[nH]c(-c4cc(OC)c5ncnn5c4)c(C(C)C)c3c2)C1 (single isomer, unassigned) [Example 252]",1160 nM,2 nM,1.6 nM
"Cc1cc(-c2[nH]c3ccc(C4CN5CCC4CC5)cc3c2C(C)C)cc(C)n1 (single isomer, unassigned) [Example 362, 3-(2-(2,6-dimethylpyridin-4-yl)-3-isopropyl-1H-indol-5-yl)quinuclidine]",432 nM,6 nM,14 nM
"Cc1cc(-c2[nH]c3ccc(C4CN5CCC4CC5)cc3c2C(C)C)cc(C)n1 (single isomer, unassigned) [Example 363, 3-(2-(2,6-dimethylpyridin-4-yl)-3-isopropyl-1H-indol-5-yl)quinuclidine]",438 nM,2 nM,5.3 nM
